Target: T1, STAT6 protein (Homo sapiens, UniProt P42226)
T1 sequence (P42226 1-847): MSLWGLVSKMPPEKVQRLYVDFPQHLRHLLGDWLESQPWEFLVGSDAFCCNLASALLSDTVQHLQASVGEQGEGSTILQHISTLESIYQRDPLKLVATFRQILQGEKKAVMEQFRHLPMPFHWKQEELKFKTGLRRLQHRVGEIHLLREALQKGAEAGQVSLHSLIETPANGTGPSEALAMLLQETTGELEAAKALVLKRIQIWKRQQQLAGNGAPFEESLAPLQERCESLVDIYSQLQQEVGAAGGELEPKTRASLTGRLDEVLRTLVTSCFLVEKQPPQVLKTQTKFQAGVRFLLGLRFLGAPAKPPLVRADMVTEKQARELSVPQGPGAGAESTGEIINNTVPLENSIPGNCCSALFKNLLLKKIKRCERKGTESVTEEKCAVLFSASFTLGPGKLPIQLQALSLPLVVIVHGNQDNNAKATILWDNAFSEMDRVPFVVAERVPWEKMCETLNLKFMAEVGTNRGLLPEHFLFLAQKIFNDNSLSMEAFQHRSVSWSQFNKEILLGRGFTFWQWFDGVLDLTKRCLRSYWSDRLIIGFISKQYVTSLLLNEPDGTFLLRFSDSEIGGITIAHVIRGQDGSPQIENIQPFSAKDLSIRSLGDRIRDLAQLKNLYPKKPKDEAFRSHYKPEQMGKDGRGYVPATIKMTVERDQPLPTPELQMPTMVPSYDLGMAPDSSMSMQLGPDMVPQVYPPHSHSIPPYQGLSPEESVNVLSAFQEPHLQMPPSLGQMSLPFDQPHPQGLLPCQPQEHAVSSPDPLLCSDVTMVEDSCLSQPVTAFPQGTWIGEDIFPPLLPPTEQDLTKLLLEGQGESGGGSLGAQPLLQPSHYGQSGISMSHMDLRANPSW
Assay: Fluorescence polarization (FP) binding assay, STAT6
Conditions: FP competition, 5 nM fluorescein-labeled tracer, 200 nM protein, PBS pH7.4; read-out: Binding STAT6
Method in brief: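 Tracer (fluorescein-labeled, 5 nM) was mixed with 200 nM STAT5 and/or STAT6 in PBS pH 7.4 plus 0.01% BGG, 0.01% Tween-20, 2 mM DTT. After 15 min shaking and 1 h at room temperature to equilibrium, polarization was measured and constants derived by nonlinear fitting.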

| SMILES | Ki [µM] |
| --- | --- |
| CC(=O)N1CC[C@H]2CC[C@@H](C(=O)N(C)c3ccccc3)N2C(=O)[C@@H](NC(=O)c2cc3cc(C(F)(F)P(=O)(O)O)ccc3[nH]2)C1 [Compound 360, ((2-(((5S,8S,10aR)-3-acetyl-8-(methyl(phenyl)carbamoyl)-6-oxodecahydropyrrolo[1,2-a][1,5]diazocin-5-yl)carbamoyl)-1H-indol-5-yl)difluoromethyl)phosphonic acid] | > 10 |
| CC(=O)N1CC[C@H]2CC[C@@H](C(=O)Nc3ccccc3)N2C(=O)[C@@H](NC(=O)c2cc3cc(C(F)(F)P(=O)(O)O)ccc3[nH]2)C1 [Compound 361, ((2-(((5S,8S,10aR)-3-acetyl-6-oxo-8-(phenylcarbamoyl)decahydropyrrolo [1,2-a][1,5]diazocin-5-yl)carbamoyl)-1H-indol-5-yl)difluoromethyl)phosphonic acid] | > 10 |
| CC(=O)N1CC[C@H]2CC[C@@H](C(=O)N(c3ccccc3)c3ccccc3)N2C(=O)[C@@H](NC(=O)c2cc3cc(C(F)(F)P(=O)(O)O)ccc3[nH]2)C1 [Compound 362, ((2-(((5S,8S,10aR)-3-acetyl-8-(diphenylcarbamoyl)-6-oxodecahydropyrrolo[1,2-a][1,5]diazocin-5-yl)carbamoyl)-1H-indol-5-yl)difluoromethyl)phosphonic acid] | 1 to 10 |
| CC(=O)N1CC[C@H]2CC[C@@H](C(=O)N3CCCOCC3)N2C(=O)[C@@H](NC(=O)c2cc3cc(C(F)(F)P(=O)(O)O)ccc3[nH]2)C1 [Compound 368, ((2-(((5S,8S,10aR)-3-acetyl-8-(1,4-oxazepane-4-carbonyl)-6-oxodecahydropyrrolo[1,2-a][1,5]diazocin-5-yl)carbamoyl)-1H-indol-5-yl)difluoromethyl)phosphonic acid] | > 10 |
| CC(=O)N1CC[C@H]2CC[C@@H](C(=O)N(c3ccccc3)c3ccc(Br)cc3)N2C(=O)[C@@H](NC(=O)c2cc3cc(C(F)(F)P(=O)(O)O)ccc3[nH]2)C1 [Compound 370, ((2-(((5S,8S,10aR)-3-acetyl-8-((4-bromophenyl)(phenyl)carbamoyl)-6-oxodecahydropyrrolo[1,2-a][1,5]diazocin-5-yl)carbamoyl)-1H-indol-5-yl)difluoromethyl)phosphonic acid] | 1 to 10 |
| CC(=O)N1CC[C@H]2CC[C@@H](C(=O)N(c3ccc(Cl)cc3)C3CCCCC3)N2C(=O)[C@@H](NC(=O)c2cc3cc(C(F)(F)P(=O)(O)O)ccc3[nH]2)C1 [Compound 371, ((2-(((5S,8S,10aR)-3-acetyl-8-((4-chlorophenyl)(cyclohexyl)carbamoyl)-6-oxodecahydropyrrolo[1,2-a][1,5]diazocin-5-yl)carbamoyl)-1H-indol-5-yl)difluoromethyl)phosphonic acid] | > 10 |
| CC(=O)N1CC[C@H]2CC[C@@H](C(=O)N(C)c3ccc(Cl)cc3)N2C(=O)[C@@H](NC(=O)c2cc3cc(C(F)(F)P(=O)(O)O)ccc3[nH]2)C1 [Compound 375, ((2-(((5S,8S,10aR)-3-acetyl-8-((4-chlorophenyl)(methyl)carbamoyl)-6-oxodecahydropyrrolo[1,2-a][1,5]diazocin-5-yl)carbamoyl)-1H-indol-5-yl)difluoromethyl)phosphonic acid] | > 10 |
| CC(=O)N1CC[C@H]2CC[C@@H](C(=O)N(C)c3ccc(F)cc3)N2C(=O)[C@@H](NC(=O)c2cc3cc(C(F)(F)P(=O)(O)O)ccc3[nH]2)C1 [Compound 376, ((2-(((5S,8S,10aR)-3-acetyl-8-((4-fluorophenyl)(methyl)carbamoyl)-6-oxodecahydropyrrolo[1,2-a][1,5]diazocin-5-yl)carbamoyl)-1H-indol-5-yl)difluoromethyl)phosphonic acid] | > 10 |

Other lines, results leading:

| Ki [µM] | SMILES |
| --- | --- |
| 0.1 to 1 | CC(=O)N1CC[C@H]2CC[C@@H](C(=O)N3Cc4ccccc4C3)N2C(=O)[C@@H](NC(=O)c2cc3cc(C(F)(F)P(=O)(O)O)ccc3[nH]2)C1 [Compound 359, ((2-(((5S,8S,10aR)-3-acetyl-8-(isoindoline-2-carbonyl)-6-oxodecahydropyrrolo[1,2-a][1,5]diazocin-5-yl)carbamoyl)-1H-indol-5-yl)difluoromethyl)phosphonic acid] |
| > 10 | O=C(N[C@H]1CCC[C@H]2CC[C@@H](C(=O)N3CCc4ccccc4C3)N2C1=O)c1cc2cc(C(F)(F)P(=O)(O)O)ccc2[nH]1 [Compound 363, (difluoro(2-(((3S,6S,9aS)-5-oxo-3-(1,2,3,4-tetrahydroisoquinoline-2-carbonyl)octahydro-1H-pyrrolo[1,2-a]azepin-6-yl)carbamoyl)-1H-indol-5-yl)methyl)phosphonic acid] |
| > 10 | CC(C)C(=O)N1CC[C@H]2CC[C@@H](C(=O)N3CCc4ccccc4C3)N2C(=O)[C@@H](NC(=O)c2cc3cc(C(F)(F)P(=O)(O)O)ccc3[nH]2)C1 [Compound 364, (difluoro(2-(((5S,8S,10aR)-3-isobutyryl-6-oxo-8-(1,2,3,4-tetrahydroisoquinoline-2-carbonyl)decahydropyrrolo[1,2-a][1,5]diazocin-5-yl)carbamoyl)-1H-indol-5-yl)methyl)phosphonic acid] |
| > 10 | CN1CCC(C(=O)N2CC[C@H]3CC[C@@H](C(=O)N4CCc5ccccc5C4)N3C(=O)[C@@H](NC(=O)c3cc4cc(C(F)(F)P(=O)(O)O)ccc4[nH]3)C2)CC1 [Compound 365, (difluoro(2-(((5S,8S,10aR)-3-(1-methylpiperidine-4-carbonyl)-6-oxo-8-(1,2,3,4-tetrahydroisoquinoline-2-carbonyl)decahydropyrrolo[1,2-a][1,5]diazocin-5-yl)carbamoyl)-1H-indol-5-yl)methyl)phosphonic acid] |
| > 10 | CC(=O)N1CC[C@H]2CC[C@@H](C(=O)N3CCc4cc(Cl)ccc4C3)N2C(=O)[C@@H](NC(=O)c2cc3cc(C(F)(F)P(=O)(O)O)ccc3[nH]2)C1 [Compound 366, ((2-(((5S,8S,10aR)-3-acetyl-8-(6-chloro-1,2,3,4-tetrahydroisoquinoline-2-carbonyl)-6-oxodecahydropyrrolo[1,2-a][1,5]diazocin-5-yl)carbamoyl)-1H-indol-5-yl)difluoromethyl)phosphonic acid] |
| > 10 | CC(=O)N1CC[C@H]2CC[C@@H](C(=O)N3CCOCC3)N2C(=O)[C@@H](NC(=O)c2cc3cc(C(F)(F)P(=O)(O)O)ccc3[nH]2)C1 [Compound 367, ((2-(((5S,8S,10aR)-3-acetyl-8-(morpholine-4-carbonyl)-6-oxodecahydropyrrolo[1,2-a][1,5]diazocin-5-yl)carbamoyl)-1H-indol-5-yl)difluoromethyl)phosphonic acid] |
| > 10 | CC(=O)N1CC[C@H]2CC[C@@H](C(=O)N3CCCc4ccccc4C3)N2C(=O)[C@@H](NC(=O)c2cc3cc(C(F)(F)P(=O)(O)O)ccc3[nH]2)C1 [Compound 369, ((2-(((5S,8S,10aR)-3-acetyl-6-oxo-8-(2,3,4,5-tetrahydro-1H-benzo[c]azepine-2-carbonyl)decahydropyrrolo[1,2-a][1,5]diazocin-5-yl)carbamoyl)-1H-indol-5-yl)difluoromethyl)phosphonic acid] |
| > 10 | CC(=O)N1CC[C@H]2CC[C@@H](C(=O)N3CCOc4ccccc43)N2C(=O)[C@@H](NC(=O)c2cc3cc(C(F)(F)P(=O)(O)O)ccc3[nH]2)C1 [Compound 372, ((2-(((5S,8S,10aR)-3-acetyl-8-(3,4-dihydro-2H-benzo[b][1,4]oxazine-4-carbonyl)-6-oxodecahydropyrrolo[1,2-a][1,5]diazocin-5-yl)carbamoyl)-1H-indol-5-yl)difluoromethyl)phosphonic acid] |
| 1 to 10 | CC(=O)N1CC[C@H]2CC[C@@H](C(=O)N3CCc4cc(I)ccc4C3)N2C(=O)[C@@H](NC(=O)c2cc3cc(C(F)(F)P(=O)(O)O)ccc3[nH]2)C1 [Compound 373, ((2-(((5S,8S,10aR)-3-acetyl-8-(6-iodo-1,2,3,4-tetrahydroisoquinoline-2-carbonyl)-6-oxodecahydropyrrolo[1,2-a][1,5]diazocin-5-yl)carbamoyl)-1H-indol-5-yl)difluoromethyl)phosphonic acid] |
| > 10 | CC(=O)N1CC[C@H]2CC[C@@H](C(=O)N3CCc4ccccc4CC3)N2C(=O)[C@@H](NC(=O)c2cc3cc(C(F)(F)P(=O)(O)O)ccc3[nH]2)C1 [Compound 374, ((2-(((5S,8S,10aR)-3-acetyl-6-oxo-8-(2,3,4,5-tetrahydro-1H-benzo[d]azepine-3-carbonyl)decahydropyrrolo[1,2-a][1,5]diazocin-5-yl)carbamoyl)-1H-indol-5-yl)difluoromethyl)phosphonic acid] |
| > 10 | CC(=O)N1CC[C@H]2CC[C@@H](C(=O)N3Cc4ccc(Cl)cc4C3)N2C(=O)[C@@H](NC(=O)c2cc3cc(C(F)(F)P(=O)(O)O)ccc3[nH]2)C1 [Compound 377, ((2-(((5,8S,10aR)-3-acetyl-8-(5-chloroisoindoline-2-carbonyl)-6-oxodecahydropyrrolo[1,2-a][1,5]diazocin-5-yl)carbamoyl)-1H-indol-5-yl)difluoromethyl)phosphonic acid] |
